Measured values taken from US11033559B2, “Leukocyte infiltration promoting agent and antitumor immunostimulatory agent” (OSAKA UNIVERSITY, priority 2015, dated 2021).

Columns and labels:
Assay type in all cases: in vivo
[1] = system: tumor blood vessels in Lewis lung cancer (LLC) tumor-bearing mice; test: Structural changes in tumor blood vessels (anti-CD31 immunostaining) after administration of LPA or LPA derivative; details: 3 mg/kg intraperitoneally once daily for five days, tumors harvested at 6 days, anti-CD31 staining
Experimental: LPA or an LPA derivative was administered to tumor-bearing mice generated by subcutaneous inoculation of a mouse cancer cell line, and post-administration structural changes in tumor blood vessels were examined.
Lewis lung cancer cells (hereinafter called LLC cells) were used as the mouse cancer cell line. LLC cells (1×10^6 cells in 100 μL PBS per animal) were subcutaneously injected into C57BL/6 NCrSlc mice aged 8 weeks (females, SLC, Inc.).
The LPA used was 18:1 LPA (Avanti Polar Lipids, Inc.). The LPA derivative used was VPC31144S (N-{(1S)-2-hydroxy-1-[(phosphonooxy)methyl]ethyl} (9Z) octade c-9-enamide). A 10 mM LPA stock solution and a 10 mM VPC31144S stock solution were separately prepared using 50% ethanol and stored at −30° C. Before use, each of the frozen stock solutions was thawed and homogenized with an ultrasonic cleaner (SND Co., Ltd.) for 1 minute. The solution was diluted in PBS to an appropriate concentration for administration at a dose of 3 mg/kg in 100 μL PBS.
On day 9 post-inoculation, LLC-bearing mice that had developed a tumor with a volume of 60 to 80 mm^3 (volume=length×width×height×0.5) were selected and subjected to the experiment. The mice were assigned to three groups: a control group, an LPA group and a VPC31144S group. Each group consisted of three mice. […]

LLC cells = test: Antitumor effect of combined use of LPA and immune checkpoint inhibitor; details: LLC-bearing mice; LPA 3 mg/kg i.p. day 6 to day 20; anti-PD-1 antibody 100 μg/mouse i.p. on days 7, 9, 11, 14, 16, 18; volume until day 21
Experimental: LLC cells (1×10^6 cells in 100 μL PBS per animal) were subcutaneously injected into C57BL/6 NCrSlc mice aged 8 weeks (females) in the same manner as in Reference Example 1. On day 6 post-inoculation, LLC-bearing mice that had developed a tumor with a volume of 30 to 40 mm^3 (volume=length×width×height×0.5) were selected. The mice were divided into four groups: a control group, an LPA administration group, an anti-PD-1 antibody administration group and an LPA plus anti-PD-1 antibody administration group, and subjected to the experiment. To the LPA administration group and to the LPA plus anti-PD-1 antibody administration group, LPA (3 mg/kg/100 μL) was intraperitoneally administered consecutively from day 6 through day 20 post-inoculation of the tumor cells. In the anti-PD-1 antibody administration group and in the LPA plus anti-PD-1 antibody administration group, anti-PD-1antibody therapy was started from day 7 post-inoculation of the tumor cells. Specifically, an anti-mouse PD-1 antibody (Clone: RMP1-14, BioXcell, BE0146) was intraperitoneally administered at a dose of 100 μg/mouse on day 7, day 9, day 11, day 14, day 16 and day 18 post-inoculation of the tumor cells. […] Tumor volume was measured over time until day 21.

[2] = system: luminal surface of tumor blood vessels in LLC tumor-bearing mice; test: Structural changes in lumina of tumor blood vessels (scanning electron microscopy); details: 3 mg/kg intraperitoneally, 24 hours after administration, scanning electron microscope
Experimental: LLC cells were subcutaneously inoculated into C57BL/6 NCrSlc mice aged 8 weeks (females, SLC, Inc.) in the same manner as in Reference Example 1. An LPA solution for administration was prepared in the same manner as in Reference Example 1. LLC-bearing mice on day 9 post-inoculation (animals with a tumor volume of 60 to 80 mm^3) were subjected to the experiment. The mice were divided into two groups: a control group and an LPA group (n=3 per group). After grouping, LPA (3 mg/kg/100 μL) or PBS (100 μL) was intraperitoneally administered to the mice. At 24 hours after LPA or PBS administration, the mice were fixed by perfusion with a fixative under anesthesia with pentobarbital (Kyoritsu Seiyaku Corporation). The fixative used was 0.1 M phosphate buffer (pH 7.4) containing 2% formaldehyde and 2.5% glutaraldehyde. After the fixation by perfusion, the tumors were harvested, immersed in the same fixative as used for perfusion, and shaken at 4° C. overnight. The tumors were further immersed in 0.1 M phosphate buffer (pH 7.4) containing 1% osmium tetroxide and 0.5% potassium ferrocyanide for fixation. The tumors were dehydrated in an ascending series of ethanol, then the alcohol was replaced with t-butyl alcohol, and the tumors were freeze-dried.

lysophosphatidic acid [LPA]
network structure of tumor blood vessels [1]: continuous network structure of blood vessels
inhibition of tumor growth (tumor volume) versus control group (LLC cells): slightly inhibited tumor growth
luminal surface of tumor blood vessels [2]: very smooth luminal surface
